Laboratory results from ChEMBL document CHEMBL4665787, “Bifunctional and Unusual Amino Acid β- or γ-Ester Prodrugs of Nucleoside Analogues for Improved Affinity to ATB and Enhanced Metabolic Stability: An Application to Floxuridine” (J Med Chem, 2020).
The source made the active and inactive calls. The rule behind the calls is not given here.

What was measured:
[1] = Cmax in NOD SCID nude mouse tumour xenografted with ZR-75-1 cells assessed as floxuridine; 5-fluoro-2-deoxyuridine concentration at 90 mg/kg, iv measured up to 24 hrs by HPLC-MS/MS analysis; format: ADME, organism-based, Neoplasm; design: route intravenous, dose 90 mg/kg, time <=24; conditions: in vivo
[2] = target: T1, Solute carrier family 15 member 1 (Homo sapiens, UniProt P46059); assay: Substrate activity at PEPT1 (unknown origin) expressed in MDCK cells assessed as inhibition of gly-sar uptake incubated for 10 mins by HPLC/MS/MS analysis; format: cell-based
T1 sequence (P46059 whole entry): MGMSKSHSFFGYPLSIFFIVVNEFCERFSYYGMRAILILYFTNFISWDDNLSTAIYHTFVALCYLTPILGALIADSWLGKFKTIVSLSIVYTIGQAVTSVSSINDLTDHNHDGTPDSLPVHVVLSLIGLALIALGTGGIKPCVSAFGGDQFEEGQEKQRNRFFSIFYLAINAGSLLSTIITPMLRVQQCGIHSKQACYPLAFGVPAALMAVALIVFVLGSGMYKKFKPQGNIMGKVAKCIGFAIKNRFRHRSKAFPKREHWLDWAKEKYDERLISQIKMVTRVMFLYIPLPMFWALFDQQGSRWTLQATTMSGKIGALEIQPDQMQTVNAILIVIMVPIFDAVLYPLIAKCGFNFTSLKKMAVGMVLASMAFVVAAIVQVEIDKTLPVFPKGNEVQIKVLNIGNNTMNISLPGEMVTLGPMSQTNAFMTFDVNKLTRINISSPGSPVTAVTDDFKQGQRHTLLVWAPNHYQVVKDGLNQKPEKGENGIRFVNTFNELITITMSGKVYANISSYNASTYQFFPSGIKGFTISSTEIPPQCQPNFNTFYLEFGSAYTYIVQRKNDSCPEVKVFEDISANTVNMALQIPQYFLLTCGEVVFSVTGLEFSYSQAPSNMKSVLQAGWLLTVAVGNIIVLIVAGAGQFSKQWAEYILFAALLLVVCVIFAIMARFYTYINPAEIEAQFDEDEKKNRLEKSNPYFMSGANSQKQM

[3] = Selectivity ratio of substrate activity at PEPT1 (unknown origin) expressed in MDCK cells assessed as PEPT1 mediated drug uptake to drug uptake in MDCK cells
[4] = Half life of compound in human ZR-75-1 cell homogenate; format: ADME, tissue-based
[5] = Toxicity in NOD SCID nude mouse xenografted with human MDA-MB-231 cells assessed as body weight at 90 mg/kg, iv for 20 days (reference value: 30.1 +/- 4.1g); format: organism-based; conditions: in vivo, 480 h, time 20 day
[6] = Ratio of AUC (0 to t) in NOD SCID nude mouse plasma xenografted with ZR-75-1 cells to AUC (0 to t) in NOD SCID mouse tumour xenografted with ZR-75-1 cells; format: ADME, cell-free, Tumor/Plasma
[7] = Half life of compound in human MIA PaCa-2 cell homogenate; format: ADME, tissue-based
[8] = Selectivity ratio of substrate activity at SLC6A14 (unknown origin) expressed in Xenopus laevis oocytes assessed as ABT0+ mediated drug uptake to drug uptake in Xenopus laevis oocytes; design: species or system Oocyte
[9] = target: T1, Solute carrier family 15 member 1; assay: Substrate activity at PEPT1 (unknown origin) expressed in MDCK cells assessed as PEPT1 mediated drug uptake at 0.5 mM incubated for 10 mins by HPLC analysis; format: ADME, cell-based; conditions: 500 µM
[10] = Toxicity in NOD SCID nude mouse xenografted with human ZR-75-1 cells assessed as body weight at 90 mg/kg, iv for 20 days (reference value: 29.2 +/- 2.5g); format: organism-based; conditions: in vivo, 480 h, time 20 day
[11] = AUC (0 to t) in NOD SCID nude mouse plasma xenografted with ZR-75-1 cells assessed as fluorouracil AUC at 90 mg/kg, iv measured up to 24 hrs by HPLC-MS/MS analysis; format: ADME, organism-based; design: route intravenous, dose 90 mg/kg, time <=24; conditions: in vivo
[12] = target: T2, Sodium- and chloride-dependent neutral and basic amino acid transporter B(0+) (Homo sapiens, UniProt Q9UN76); assay: Substrate activity at SLC6A14 (unknown origin) expressed in Xenopus laevis oocytes assessed as ABT0+ mediated drug uptake at 0.5 mM incubated for 10 mins by HPLC analysis; format: ADME, cell-based; conditions: oocyte, 500 µM
T2 sequence (Q9UN76 whole entry): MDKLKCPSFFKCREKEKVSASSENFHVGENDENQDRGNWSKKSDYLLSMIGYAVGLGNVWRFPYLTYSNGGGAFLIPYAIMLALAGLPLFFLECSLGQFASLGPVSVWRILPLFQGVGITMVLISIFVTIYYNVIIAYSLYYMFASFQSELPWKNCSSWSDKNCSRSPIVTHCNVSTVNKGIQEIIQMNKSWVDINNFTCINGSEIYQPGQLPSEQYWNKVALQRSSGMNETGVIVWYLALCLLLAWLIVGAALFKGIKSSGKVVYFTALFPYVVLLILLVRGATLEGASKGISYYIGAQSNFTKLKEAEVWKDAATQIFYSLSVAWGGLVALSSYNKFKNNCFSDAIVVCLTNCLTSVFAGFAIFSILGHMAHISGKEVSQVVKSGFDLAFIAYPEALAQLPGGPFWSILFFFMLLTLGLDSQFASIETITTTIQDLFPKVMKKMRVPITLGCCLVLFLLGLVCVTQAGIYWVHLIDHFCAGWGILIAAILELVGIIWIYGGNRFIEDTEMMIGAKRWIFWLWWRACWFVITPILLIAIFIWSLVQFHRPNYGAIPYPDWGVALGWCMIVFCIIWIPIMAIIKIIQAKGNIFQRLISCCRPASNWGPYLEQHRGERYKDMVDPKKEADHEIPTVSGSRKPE

[13] = AUC (0 to t) in NOD SCID nude mouse plasma xenografted with ZR-75-1 cells at 90 mg/kg, iv measured up to 24 hrs by HPLC-MS/MS analysis; format: ADME, organism-based; design: route intravenous, dose 90 mg/kg, time <=24
[14] = Cmax in NOD SCID nude mouse plasma xenografted with ZR-75-1 cells assessed as fluorouracil at 90 mg/kg, iv measured up to 24 hrs by HPLC-MS/MS analysis; format: ADME, organism-based; design: route intravenous, dose 90 mg/kg, time <=24; conditions: in vivo
thymidine phosphorylase = assay: Half life of compound in thymidine phosphorylase buffer at 300 uM by HPLC analysis; format: physicochemical
[15] = Half life of compound in human MDA-MB-231 cell homogenate; format: ADME, tissue-based
[16] = AUC (0 to t) in NOD SCID nude mouse tumour xenografted with ZR-75-1 cells assessed as floxuridine; 5-fluoro-2-deoxyuridine AUC at 90 mg/kg, iv measured up to 24 hrs by HPLC-MS/MS analysis; format: ADME, organism-based, Neoplasm; conditions: in vivo
[17] = Drug uptake in MDCK cells incubated for 10 mins by HPLC analysis; format: ADME, cell-based, Canis lupus familiaris; conditions: dog, 500 µM, dose 0.5 mM
MDA-MB-231 [18] = assay: Antitumour activity against human MDA-MB-231 cells xenografted in NOD SCID nude mouse assessed as tumour inhibition at 90 mg/kg, iv administered for 20 days measured every 2 day by caliper method relative to control; format: functional; conditions: MDA-MB-231, iv, 480 h, time 20 day
[19] = Toxicity in NOD SCID nude mouse xenografted with human MIA PaCa-2 cells assessed as body weight at 90 mg/kg, iv for 20 days (reference value: 28.4 +/- 2.1g); format: organism-based; conditions: in vivo, 480 h, time 20 day
[20] = Drug uptake in Xenopus laevis oocytes at 0.5 mM incubated for 10 mins by HPLC analysis; format: ADME, cell-based; conditions: oocyte, 500 µM
ZR-75-1 [21] = assay: Antitumour activity against human ZR-75-1 cells xenografted in NOD SCID nude mouse assessed as tumour inhibition at 90 mg/kg, iv administered for 20 days measured every 2 day by caliper method relative to control; format: functional; conditions: ZR-75-1, iv, 480 h, time 20 day
MIA PaCa-2 [22] = assay: Antitumour activity against human MIA-PaCa-2 cells xenografted in NOD SCID nude mouse assessed as tumour inhibition at 90 mg/kg, iv administered for 20 days measured every 2 day by caliper method relative to control; format: functional; conditions: MIA PaCa-2, iv, 480 h, time 20 day
[23] = Half life of compound in PBS buffer at pH 7.4 at 200 uM by HPLC analysis; format: physicochemical
MDA-MB-231 [24] = assay: Potency index, ratio of FUdR GI50 to test compound GI50 for growth inhibition of human MDA-MB-231 cells; format: functional
ZR-75-1 [25] = assay: Potency index, ratio of FUdR GI50 to test compound GI50 for growth inhibition of human ZR-75-1 cells; format: functional
[26] = Half life in rat plasma at 200 uM measured up to 120 mins by HPLC-MS/MS analysis; format: ADME, cell-free
[27] = target: T3, Sodium- and chloride-dependent neutral and basic amino acid transporter B(0+) (Homo sapiens) (UniProt Q9UN76); assay: Substrate activity at SLC6A14 (unknown origin) expressed in Xenopus laevis oocytes assessed as increase in ABT0+ mediated drug uptake at 1 mM in presence of Cl- ion by HPLC analysis; format: cell-based; conditions: Oocyte
T3 sequence (whole entry): T2 sequence (Q9UN76 whole entry)

MIA PaCa-2 [28] = assay: Potency index, ratio of FUdR GI50 to test compound GI50 for growth inhibition of human MIA-PaCa-2 cells; format: functional
[29] = target: T3, Sodium- and chloride-dependent neutral and basic amino acid transporter B(0+) (Homo sapiens); assay: Substrate activity at SLC6A14 (unknown origin) expressed in Xenopus laevis oocytes assessed as inhibition of drug uptake at 0.5 mM incubated for 10 mins in presence of glycine by HPLC analysis relative to control; format: cell-based; conditions: Oocyte
[30] = target: T3, Sodium- and chloride-dependent neutral and basic amino acid transporter B(0+) (Homo sapiens); assay: Substrate activity at SLC6A14 (unknown origin) expressed in Xenopus laevis oocytes assessed as increase in ABT0+ mediated drug uptake at 1 mM in presence of Na+ ion by HPLC analysis; format: cell-based; conditions: Oocyte
[31] = target: T2, Sodium- and chloride-dependent neutral and basic amino acid transporter B(0+); assay: Substrate activity at SLC6A14 (unknown origin) expressed in Xenopus laevis oocytes assessed as inhibition of glycine uptake incubated for 10 mins by HPLC/MS/MS analysis; format: cell-based, Oocyte
[32] = compound: N[C@@H](CC(=O)OC[C@H]1O[C@@H](n2cc(F)c(=O)[nH]c2=O)C[C@@H]1O)C(=O)O; assay: (§1) Substrate activity at SLC6A14 (unknown origin) expressed in Xenopus laevis oocytes assessed as Km by measuring ABT0+ mediated drug uptake incubated for 10 mins in presence of glycine by HPLC based Michaelis-Menten analysis; format: cell-based; conditions: Homo sapiens, Oocyte
[33] = compound: CC(C)[C@H](N)C(=O)OC[C@H]1O[C@@H](n2cc(F)c(=O)[nH]c2=O)C[C@@H]1O; assay: as §1; format: cell-based; conditions: Homo sapiens, Oocyte
[34] = compound: N[C@@H](CCC(=O)OC[C@H]1O[C@@H](n2cc(F)c(=O)[nH]c2=O)C[C@@H]1O)C(=O)O; assay: as §1; format: cell-based; conditions: Homo sapiens, Oocyte
[35] = compound: N[C@@H](CC(=O)OC[C@H]1O[C@@H](n2cc(F)c(=O)[nH]c2=O)C[C@@H]1O)C(=O)O; assay: (§2) Substrate activity at SLC6A14 (unknown origin) expressed in Xenopus laevis oocytes assessed as Vmax by measuring ABT0+ mediated drug uptake incubated for 10 mins in presence of glycine by HPLC based Michaelis-Menten analysis; format: cell-based; conditions: Homo sapiens, Oocyte
[36] = compound: CC(C)[C@H](N)C(=O)OC[C@H]1O[C@@H](n2cc(F)c(=O)[nH]c2=O)C[C@@H]1O; assay: as §2; format: cell-based; conditions: Homo sapiens, Oocyte
[37] = compound: N[C@@H](CCC(=O)OC[C@H]1O[C@@H](n2cc(F)c(=O)[nH]c2=O)C[C@@H]1O)C(=O)O; assay: as §2; format: cell-based; conditions: Homo sapiens, Oocyte

## O=c1[nH]c(=O)n([C@H]2C[C@H](O)[C@@H](CO)O2)cc1F [FLOXURIDINE]
[1]
  Cmax: 374.4 ng/g
[2]
  IC50: 12.2 mM
[3]
  Ratio: 1
[4]
  half-life: 13.2 min
[5]
  Activity: 28.4 g
[6]
  Ratio: 0.5
[7]
  half-life: 15.6 min
[8]
  Ratio: 1
[9]
  Drug uptake: < 0.04 nmol/mg/min
[10]
  Activity: 25.8 g
[11]
  AUCt: 4107.2 ng·h/mL
[12]
  Drug uptake: < 0.04 nmol/mg/min
[13]
  AUC(0-t) at 24 h: 3420 ng·h/mL
[14]
  Cmax: 434.1 ng/mL
Thymidine phosphorylase
  half-life at 300 µM: 10.2 min
[15]
  half-life: 23.1 min
[16]
  AUCt: 1877.1 ng·h/g
[17]
  Drug uptake: < 0.04 nmol/mg/min
MDA-MB-231 [18]
  inhibition in vivo at 90 mg/kg: 36.9%
[19]
  Activity: 24.7 g
[20]
  Drug uptake: < 0.04 nmol/mg/min
ZR-75-1 [21]
  inhibition in vivo at 90 mg/kg: 36.1%
MIA PaCa-2 [22]
  inhibition in vivo at 90 mg/kg: 41.3%

## N[C@@H](CCC(=O)OC[C@H]1O[C@@H](n2cc(F)c(=O)[nH]c2=O)C[C@@H]1O)C(=O)O
[23]
  half-life at 200 µM: 258 min
MDA-MB-231 [24]
  RatioGI50: 7
ZR-75-1 [25]
  RatioGI50: 7
[2]
  IC50: 11.5 mM
[26]
  half-life at 200 µM: 114 min
[3]
  Ratio: 1
[4]
  half-life: 12.3 min
[27]
  Activity: Active
MIA PaCa-2 [28]
  RatioGI50: 7
[7]
  half-life: 20.1 min
[8]
  Ratio: 6.23
[9]
  Drug uptake: < 0.04 nmol/mg/min
[12]
  Drug uptake: 2.12 nmol/mg/min
Thymidine phosphorylase
  half-life at 300 µM: 256 min
[15]
  half-life: 17.3 min
[29]
  inhibition: 50%
[30]
  Activity: Active
[17]
  Drug uptake: < 0.04 nmol/mg/min
[20]
  Drug uptake: 0.35 nmol/mg/min
[31]
  IC50: 1.13 mM

B1: Sodium- and chloride-dependent neutral and basic amino acid transporter B(0+) (Homo sapiens), Q9UN76 (protein)
chain: T2 sequence (Q9UN76 whole entry)
[32]
  Km: 35.6 µM
[33]
  Km: 54.6 µM
[34]
  Km: 84 µM
[35]
  Vmax: 201 pmol/mg/min
[36]
  Vmax: 278 pmol/mg/min
[37]
  Vmax: 235 pmol/mg/min
